≈ marks a conversion by molar mass, not a printed value. Like-named read-outs stand apart in the source and are kept apart here.
Columns and labels:
[1] = system: chloroquine-resistant K1 strain of P. falciparum; experiment: In vitro antimalarial semiautomated microdilution assay ([3H]-hypoxanthine incorporation), K1 strain; format: cell-based, Plasmodium falciparum; details: Plasmodium falciparum
Summary of the method: (§1)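 IC50 values come from Logit regression of [3H]-hypoxanthine uptake data. Parasites were intraerythrocytic P. falciparum forms taken from asynchronous stock cultures and tested by semiautomated microdilution.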

[2] = system: ANKA strain of P. berghei; experiment: Single dose STI in vivo screen in infected mice; parameters: species or system Plasmodium berghei; details: for Survival (days) 10 mg/kg po: single 10 mg/kg po in 3% ethanol and 7% Tween 80; for Survival (days) 10 mg/kg po / Survival (days) 10 mg/kg SSV po / Survival (days) 10 mg/kg sc: untreated 6-7 days; for Activity (%) 10 mg/kg po: single 10 mg/kg po in 3% ethanol and 7% Tween 80 on day 1 post-infection; for Activity (%) 10 mg/kg po / Activity (%) 10 mg/kg SSV po / Activity (%) 10 mg/kg sc / Activity (%) 3 mg/kg SSV po: percent reduction in parasitemia on day 3; for Survival (days) 10 mg/kg SSV po: single 10 mg/kg po in SSV; for Activity (%) 10 mg/kg SSV po: single 10 mg/kg po in standard suspending vehicle (SSV) on day 1 post-infection; for Survival (days) 10 mg/kg sc: single 10 mg/kg sc in 3% ethanol and 7% Tween 80; for Activity (%) 10 mg/kg sc: single 10 mg/kg sc in 3% ethanol and 7% Tween 80 on day 1 post-infection; for Activity (%) 3 mg/kg SSV po / Survival (days) 3 mg/kg SSV po: single 3 mg/kg po in SSV
[3] = system: ANKA strain of Plasmodium berghei; experiment: Single dose ED50/ED90/ED99 determination in infected mice; format: in vivo; details: single dose po in SSV on day 1 post-infection, parasitemia day 3, nonlinear fitting; for ED50: Plasmodium berghei, po
Experimental: In the single dose ED50/ED98/ED99 determinations, Moro SPF or NMRI mice (group of three) infected with the ANKA strain of Plasmodium berghei were treated on day one post-infection. […] The SSV consists of 0.5% w/v CMC, 0.5% v/v benzyl alcohol, 0.4% v/v Tween 80, and 0.9% w/v sodium chloride in water. Antimalarial activity was measured by percent reduction in parasitemia on day three post-infection. The ED50/ED90 values were calculated by nonlinear fitting.
The ED50, ED90, and ED99 values were calculated by non-linear fitting with statistical program and were expressed in mg/kg.

[4] = system: chloroquine-sensitive NF54 strain of P. falciparum; experiment: In vitro antimalarial semiautomated microdilution assay ([3H]-hypoxanthine incorporation), NF54 strain; format: cell-based, Plasmodium falciparum; details: Plasmodium falciparum
Summary of the method: as §1

P. berghei ANKA strain [5] = experiment: Onset of action and recrudescence experiment, single 100 mg/kg po; format: in vivo, Plasmodium berghei; details: single 100 mg/kg po (SSV) on day +3 post-infection; recrudescence = >5% parasitemia; followed up to 60 days; groups of five
Experimental: The onset of drug action was determined after a single fixed dose of 100 mg/kg (SSV vehicle) po to groups of five animals on day +3 post-infection (day 0).
(§2) Moro NMRI male mice (Fu Albino specific pathogen free) weighing 18±2 g were infected intravenously (i.v.) with 2×10^7 P. berghei ANKA strain-infected erythrocytes from donor mice on day 0 of the experiment. From donor mice with circa 30% parasitemia, heparinized blood was taken and diluted in physiological saline to 10^8 parasitized erythrocytes per ml. An aliquot (0.2 ml) of this suspension was injected i.v. into experimental and control groups of mice. […] Throughout the experiments, mice were kept in groups of three or five animals in Makrolon type II cages in an air-conditioned animal room at 22 to 23° C.

P. berghei ANKA strain [6] = experiment: Divided 3x3 mg/kg and 3x1 mg/kg po doses in infected mice; format: in vivo, Plasmodium berghei; details: for Cures: 3 mg/kg, 720 h
Experimental: as §2
(§3) They were administered per os (p.o.) in a total volume of 0.01 ml per gram of mouse. The activity of the compound was determined by a variety of methods outlined in subsequent sections. Survival time was also recorded, and survival to day 30 post-infection was considered to be a cure.
The second experiment consists of administration of divided 3×3 mg/kg and 3×1 mg/kg po doses administered on days 1, 2, and 3 post-infection. On day 4 post-infection, blood smears of all animals were prepared and stained with Giemsa. […] Compounds were administered orally in the SSV vehicle.

P. berghei ANKA strain [7] = experiment: Prophylactic activity, single 100 mg/kg po at various times before infection; format: in vivo, Plasmodium berghei; details: for Prophylactic Activity (%) 72 h: po, 100 mg/kg; for Prophylactic Activity (%) 24 h: single 100 mg/kg po 24 h before infection; for Prophylactic Activity (%) 24 h / Prophylactic Activity (%) 48 h / Prophylactic Activity (%) 0 h: parasitemia reduction on day 3 post-infection; for Prophylactic Activity (%) 48 h: single 100 mg/kg po 48 h before infection; for Prophylactic Activity (%) 0 h: single 100 mg/kg po at 0 h
Experimental: as §2
Prophylactic activities of the compounds were compared after administering po single dose of 100 mg/kg to different groups of five animals at various times before infection. All groups including an untreated control group, were then infected at the same time. Parasitemia was determined for each animal on day 3 post-infection, and percent of reduction of the level of parasitemia compared to levels for animals given no drug is determined.

[8] = system: Schistosoma mansoni adult worms (49-day-old); experiment: Effect on adult schistosomes (49-day-old) in infected mice; format: in vivo; details: single 400 mg/kg per os; for % reduction of adult worms growth at day 49 after per os application of 400 mg/kg, TWR (%): 49-day-old adults, total worm reduction rate; for Adult worms day 49, per os 400 mg/kg, DEAD WORM (%): percentage of dead worm in the liver
Experimental: Mice were infected with 100 Schistosoma mansoni cercariae on day 49 post-treatment. Each group was treated per os with OZ compounds at single doses of 200, 400, and 600 mg/kg. Untreated mice served as the control. All groups were killed 4 weeks after treatment and the liver and intestine were removed and separated. The liver and intestine were compressed and alive male and female worms could be seen and counted.

[9] = Pharmacokinetics in dogs (IV and oral dosing); details: in vivo, dog; for bioavailability: some values marked (V), not defined
Text: (§4) Artesunate is listed as a reference compound.

[10] = Pharmacokinetics in rats (IV and oral dosing); details: rat, in vivo
Text: as §4

P. berghei ANKA strain [11] = experiment: Divided 3x10 mg/kg vs single 1x30 mg/kg po dose in infected mice; format: in vivo, Plasmodium berghei; details: for Survival (days) 3 × 10 mg/kg p.o. SSV / Activity (%) 3 × 10 mg/kg p.o. SSV: 10 mg/kg po on days 1, 2, 3 post-infection
Experimental: as §2, §3
The first experiment conducted consisted of administration of a divided 3×10 mg/kg p.o. dose administered on days 1, 2, and 3 post-infection vs. a single 1×30 mg/kg po dose administered on day 1 post-infection. On day 4 post-infection, blood smears of all animals were prepared and stained with Giemsa. […] Compounds were administered orally in the SSV vehicle.

[12] = K1, 72 h, read-out: IC50 (ng/ml) K1, chloroquine-resistant K1 strain, 72 h incubation
[13] = NF54, 72 h, read-out: IC50 (ng/ml) NF54, chloroquine-sensitive NF54 strain, 72 h incubation
[14] = chloroquine-resistant K1 strain, 72 h incubation, read-out: IC50 (ng/ml) K1
[15] = 3 × 1 mg/kg p.o. SSV on days 1, 2, 3 post-infection
[16] = 3 × 3 mg/kg p.o. SSV on days 1, 2, 3 post-infection
[17] = 3 × 3 mg/kg p.o. SSV on days 1, 2, 3 post-infection, percent reduction of parasitemia vs control on day 4
[18] = chloroquine-sensitive NF54 strain, 72 h incubation, read-out: IC50 (ng/ml) NF54

SMILES	Survival (days) 10 mg/kg po [2] [days]	Activity (%) 10 mg/kg po [2] [%]	Survival (days) 10 mg/kg SSV po [2] [days]	Activity (%) 10 mg/kg SSV po [2] [%]	Survival (days) 10 mg/kg sc [2] [days]	Activity (%) 10 mg/kg sc [2] [%]	Time of Recrudescence (P. berghei ANKA strain [5]) [days]	IC50 [1, 14] [ng/mL]	Activity (%) 3 mg/kg SSV po [2] [%]	Survival (P. berghei ANKA strain [6]; [15]) [days]	Survival (P. berghei ANKA strain [6]; [16]) [days]	Activity (%) (P. berghei ANKA strain [6]; [17])	Activity (%) (P. berghei ANKA strain [6]; po, 1 mg/kg, 96 h)	Cures (P. berghei ANKA strain [6]; po)	Prophylactic Activity (%) 72 h (P. berghei ANKA strain [7]) [%]	Prophylactic Activity (%) 24 h (P. berghei ANKA strain [7]) [%]	Prophylactic Activity (%) 48 h (P. berghei ANKA strain [7]) [%]	Prophylactic Activity (%) 0 h (P. berghei ANKA strain [7]) [%]	% reduction of adult worms growth at day 49 after per os application of 400 mg/kg, TWR (%) [8] [%]	Adult worms day 49, per os 400 mg/kg, DEAD WORM (%) [8] [%]	further results
O=C(C[C@H]1CC[C@]2(CC1)OOC1(O2)C2CC3CC(C2)CC1C3)NO (stereo partly drawn) [OZ175]	10.0	99.1	12.3	97	8.7	92	13.0	–	–	–	–	–	–	–	–	–	–	–	–	–	IC50 [1, 12]: 1.4 ng/mL (≈ 4.15 nM); ED50 [3]: 3.5 mg/kg; ED90 [3]: 6.2 mg/kg; ED99 [3]: 9.9 mg/kg; IC50 [4, 13]: 2 ng/mL (≈ 5.93 nM)
CC(C)(N)C(=O)NC[C@H]1CC[C@]2(CC1)OOC1(O2)C2CC3CC(C2)CC1C3 (stereo partly drawn) [OZ281]	–	–	8.7	99.87	–	–	–	0.5 (≈ 1.32 nM)	96	13	12.4	100	92	0\5	8	99.23	45	100	12	15	IC50 [4, 18]: 0.3 ng/mL (≈ 0.793 nM)
c1ccc(C[C@H]2CC[C@]3(CC2)OOC2(O3)C3CC4CC(C3)CC2C4)cc1 (stereo partly drawn) [OZ156]	17.0	99.98	10.3	98.8	19.7	99.98	> 60	–	–	–	–	–	–	–	–	–	–	–	0	6	IC50 [1, 12]: 2.1 ng/mL (≈ 5.92 nM); ED50 [3]: 1.3 mg/kg; ED90 [3]: 2.6 mg/kg; ED99 [3]: 4.7 mg/kg; IC50 [4, 13]: 2.1 ng/mL (≈ 5.92 nM)
NC(=O)CNC[C@H]1CC[C@]2(CC1)OOC1(O2)C2CC3CC(C2)CC1C3 (stereo partly drawn) [OZ256]	8.7	99.70	8.7	99.67	9.7	99.95	–	0.3 (≈ 0.856 nM)	–	–	–	–	–	–	13	82	29	100	10	19	IC50 [4, 18]: 0.2 ng/mL (≈ 0.571 nM); half-life ([9]; IV 10 mg/kg): 1.42 h; half-life ([9]; oral 10 mg/kg): 1.38 h; bioavailability ([9]; oral 10 mg/kg, read-out: Dog Oral Bioavailability 10 mg/kg): 42%; bioavailability ([9]; oral 25 mg/kg, read-out: Dog Oral Bioavailability 25 mg/kg): 38.3%; half-life ([10]; iv, 10 mg/kg): 1.57 h; bioavailability ([10]; po, 10 mg/kg): 18.6%; bioavailability ([10]; po, 25 mg/kg): 51.9%; half-life ([10]; po, 25 mg/kg): 1.22 h
NCC(=O)NC[C@H]1CC[C@]2(CC1)OO[C@]1(O2)C2CC3CC(C2)CC1C3 [OZ271]	–	–	8.7	99.93	–	–	–	0.36 (≈ 1.03 nM)	99.52	8.8	16.2	99.99	87	0\5	99.89	100	99.98	100	0	6	Survival (days) 3 mg/kg SSV po [2]: 8.6 days; Duration of prophylactic protection (P. berghei ANKA strain [7]; single 100 mg/kg po): 3 days; Survival (days) 3 × 10 mg/kg p.o. SSV (P. berghei ANKA strain [11]): 27.8 days; Activity (%) 3 × 10 mg/kg p.o. SSV (P. berghei ANKA strain [11]; parasitemia reduction on day 4): 100%; Survival (days) 1 × 30 mg/kg p.o. SSV (P. berghei ANKA strain [11]; single 30 mg/kg po on day 1 post-infection): 14 days; Activity (%) 1 × 30 mg/kg p.o. SSV (P. berghei ANKA strain [11]; single 30 mg/kg po on day 1 post-infection, parasitemia reduction on day 4): 99.97%; Cures 1 × 30 mg/kg p.o. SSV (P. berghei ANKA strain [11]; single 30 mg/kg po, cure = survival to day 30 post-infection): 0/5; IC50 [4, 18]: 0.29 ng/mL (≈ 0.827 nM)
CCO[C@H]1O[C@@H]2O[C@@]3(C)CC[C@H]4[C@H](C)CC[C@@H]([C@H]1C)[C@@]24OO3 [Arteether, arteether, reference compound]	–	–	–	–	–	–	11.4	–	–	–	–	–	–	–	–	–	–	–	–	–	–
Cc1ccc(S(=O)(=O)O)cc1.N[C@H]1CC[C@H](NC(=O)C[C@H]2CC[C@]3(CC2)OO[C@]2(O3)C3CC4CC(C3)CC2C4)CC1 [OZ315]	–	–	11.2	99.97	–	–	–	–	92	12.2	22	99.99	81	0\5	–	–	–	–	–	–	Survival (days) 3 mg/kg SSV po [2]: 9.6 days; Survival (days) 3 × 10 mg/kg p.o. SSV (P. berghei ANKA strain [11]): >30 days; Activity (%) 3 × 10 mg/kg p.o. SSV (P. berghei ANKA strain [11]; parasitemia reduction on day 4): 100%

— patent publication US6825230B2, “Spiro and dispiro 1,2,4-trixolane antimalarials” (Medicines for Malaria Venture MMV, priority 2002, dated 2004)
